Patent US20040087571A1, “Methods of using CCR1 antagonists as immunomodulatory agents” (Pfizer Inc, priority 2002, published 2004)

SMILES	melting point
CNC(=O)[C@H](CC(C)C)C[C@H](O)[C@H](Cc1ccc(F)cc1)NC(=O)c1cnc2ccccc2n1 [Example 90, Quinoxaline-2-carboxylic acid [1(S)-(4-fluoro-benzyl)-2(S)-hydroxy-6-methyl-4(R)-methylcarbamoyl-heptyl]-amide]	153 to 156 °C
NC(=O)[C@@H](C[C@H](O)[C@H](Cc1ccccc1)NC(=O)c1cnc2ccccc2n1)C1CCCCC1 [Example 168, Quinoxaline-2-carboxylic acid (1(S)-benzyl-4-carbamoyl-4(S)-cyclohexyl-2(S)-hydroxy-butyl)-amide]	222 to 223 °C
CC(C)C[C@H](C[C@H](O)[C@H](CC1CCCCC1)NC(=O)c1cnc2ccccc2c1)C(N)=O [Example 20, Quinoline-3-carboxylic acid (4(R)-carbamoyl-1(S)-cyclohexylmethyl-2(S)-hydroxy-6-methyl-heptyl)-amide]	186 to 188 °C
CNC(=O)[C@H](CC1CCCCC1)C[C@H](O)[C@H](CC1CCCCC1)NC(=O)c1cnc2ccccc2c1 [Example 21, Quinoline-3-carboxylic acid (5-cyclohexyl-1(S)-cyclohexylmethyl-2(S)-hydroxy-4(R)-methylcarbamoyl-pentyl)-amide]	170.5 to 172.5 °C
CNC(=O)[C@H](CC(C)C)C[C@H](O)[C@H](Cc1ccc(OCc2ccccc2)cc1)NC(=O)c1cnc2ccccc2c1 [Example 40, Quinoline-3-carboxylic acid [1(S)-(4-benzyloxy-benzyl)-2(S)-hydroxy-6-methyl-4(R)-methylcarbamoyl-heptyl]-amide]	178 to 179 °C
CC(C)C[C@H](C[C@H](O)C(Cc1ccccc1)NC(=O)c1cnc2ccccc2c1)C(=O)NCCO (stereo partly drawn) [Example 33, Quinoline-3-carboxylic acid [1-benzyl-2(S)-hydroxy-4(R)-(2-hydroxy-ethylcarbamoyl)-6-methyl-heptyl]-amide]	158 to 162 °C
CNC(=O)[C@H](CC(C)C)C[C@H](O)[C@H](Cc1ccc2ccccc2c1)NC(=O)c1cnc2ccccc2n1 [Example 127, Quinoxaline-2-carboxylic acid (2(S)-hydroxy-6-methyl-4(R)-methylcarbamoyl-1(S)-naphthalen-2-ylmethyl-heptyl)-amide]	121 to 123 °C
COc1ccc(CNC(=O)[C@H](CCC(C)(C)F)C[C@H](O)[C@H](Cc2ccccc2)NC(=O)c2cnc3ccccc3n2)cc1OC [Example 206, Quinoxaline-2-carboxylic acid [1(S)-benzyl-4(R)-(3,4-dimethoxy-benzylcarbamoyl)-7-fluoro-2(S)-hydroxy-7-methyl-octyl]-amide]	162 to 164 °C
CC(C)(F)CC[C@H](C[C@H](O)[C@H](Cc1ccccc1)NC(=O)c1cnc2ccccc2n1)C(=O)NCCc1cccs1 [Example 229, Quinoxaline-2-carboxylic acid [1(S)-benzyl-7-fluoro-2(S)-hydroxy-7-methyl-4(R)-(2-thiophen-2-yl-ethylcarbamoyl)-octyl]-amide]	152 to 154 °C
NC(=O)[C@@H](C[C@H](O)[C@H](Cc1ccccc1)NC(=O)c1cnc2ccccc2n1)C1CCOCC1 [Example 204, Quinoxaline-2-carboxylic acid [1(S)-benzyl-4(S)-carbamoyl-2(S)-hydroxy-4-(tetrahydro-pyran-4-yl)-butyl]-amide]	151 to 154 °C
CNC(=O)[C@H](CC1CCCCC1)C[C@H](O)[C@H](CC1CCCCC1)NC(=O)c1cc2ccccc2cn1 [Example 59, Isoquinoline-3-carboxylic acid (5-cyclohexyl-1(S)-cyclohexylmethyl-2(S)-hydroxy-4(R)-methylcarbamoyl-pentyl)-amide]	205 to 207 °C
NC(=O)[C@H](CC1CCC(F)(F)CC1)C[C@H](O)[C@H](Cc1ccccc1)NC(=O)c1cnc2ccccc2n1 [Example 133, Quinoxaline-2-carboxylic acid [1(S)-benzyl-4(R)-carbamoyl-5-(4,4-difluoro-cyclohexyl)-2(S)-hydroxy-pentyl]-amide]	174 to 176 °C

Further lines, results first:

melting point	SMILES
114 to 116 °C	CC1CCC(O)([C@H](C[C@H](O)[C@H](Cc2ccccc2)NC(=O)c2cnc3ccccc3n2)C(=O)NO)CC1 (stereo partly drawn) [Example 283, Quinoxaline-2-carboxylic acid [1(S)-benzyl-2(S)-hydroxy-4(S)-hydroxycarbamoyl-4-(1-hydroxy-4-methyl-cyclohexyl)-butyl]-amide]
208 to 210 °C	NC(=O)[C@@H](C[C@H](O)[C@H](Cc1ccccc1)NC(=O)c1ccc2ccccc2n1)C1CCCCC1 [Example 262, Quinoline-2-carboxylic acid (1(S)-benzyl-4(S)-carbamoyl-4-cyclohexyl-2(S)-hydroxy-butyl)-amide]
115 to 117 °C	CCCC1CCC(O)([C@H](C[C@H](O)[C@H](Cc2ccccc2)NC(=O)c2cnc3ccccc3n2)C(=O)NO)CC1 (stereo partly drawn) [Example 301, Quinoxaline-2-carboxylic acid [1(S)-benzyl-2(S)-hydroxy-4(S)-hydroxycarbamoyl-4-(1-hydroxy-4-propyl-cyclohexyl)-butyl]-amide]
230 to 233 °C	CC1CCC(O)([C@H](C[C@H](O)[C@H](Cc2ccccc2)NC(=O)c2cnc3ccccc3n2)C(N)=O)CC1 (stereo partly drawn) [Example 278, Quinoxaline-2-carboxylic acid [1(S)-benzyl-4(S)-carbamoyl-2(S)-hydroxy-4-(1-hydroxy-4-methyl-cyclohexyl)-butyl]-amide]
187 to 189 °C	NC(=O)[C@@H](C[C@H](O)[C@H](Cc1ccccc1)NC(=O)c1cnc2ccccc2n1)C1(O)CCCCC1 [Example 243, Quinoxaline-2-carboxylic acid [1(S)-benzyl-4(S)-carbamoyl-2(S)-hydroxy-4-(1-hydroxy-cyclohexyl)-butyl]-amide]
207.5 to 208.5 °C	NC(=O)[C@@H](C[C@H](O)[C@H](Cc1ccccc1)NC(=O)c1cnc2ccccc2n1)C1(O)CCC(F)(F)CC1 [Example 306, Quinoxaline-2-carboxylic acid [1(S)-benzyl-4(S)-carbamoyl-4-(4,4-difluoro-1-hydroxy-cyclohexyl)-2(S)-hydroxy-butyl]-amide]
231 °C	NC(=O)[C@@H](C[C@H](O)[C@H](Cc1ccccc1)NC(=O)c1cnc2ccccc2c1)C1CCCCC1 [Example 261, Quinoline-3-carboxylic acid (1(S)-benzyl-4(S)-carbamoyl-4-cyclohexyl-2(S)-hydroxy-butyl)-amide]
110 to 120 °C	CC(C)(O)CC[C@H](C[C@H](O)[C@H](Cc1ccc(F)c(F)c1)NC(=O)c1cnc2ccccc2n1)C(N)=O [Example 323, Quinoxaline-2-carboxylic acid [4(R)-carbamoyl-1(S)-(3,4-difluoro-benzyl)-2(S),7-dihydroxy-7-methyl-octyl]-amide]
109 to 112 °C	COc1cc(CCNC(=O)[C@H](CCC(C)(C)F)C[C@H](O)[C@H](Cc2ccccc2)NC(=O)c2cnc3ccccc3n2)cc(OC)c1 [Example 232, Quinoxaline-2-carboxylic acid {1(S)-benzyl-4(R)-[2-(3,5-dimethoxy-phenyl)-ethylcarbamoyl]-7-fluoro-2(S)-hydroxy-7-methyl-octyl}-amide]
168 to 171 °C	Cc1ccccc1C[C@H](C[C@H](O)[C@H](Cc1ccccc1)NC(=O)c1cnc2ccccc2n1)C(N)=O [Example 275, Quinoxaline-2-carboxylic acid (1(S)-benzyl-4(R)-carbamoyl-2(S)-hydroxy-5-o-tolyl-pentyl)-amide]
